According to the supplement of paper PMC13380429:
± gives the standard deviation of the averaged measurements.

How the values were obtained:
Conditions in all cases: 72 h
Caco-2 [1] = assay: cell viability relative to DMSO; higher = less toxic
HepG2 [2] = assay: as above
U2OS [3] = assay: as above
Vero E6 [4] = assay: as above
Caco-2 [5] = assay: relative viability EC50 (midpoint between 100% and the lowest measured viability); higher = less toxic
HepG2 [6] = assay: as above
U2OS [7] = assay: as above
Vero E6 [8] = assay: as above
Caco-2 [9] = assay: drug sensitivity score (DSS) for viability; higher = more toxic; extreme values may be limits of the assay
HepG2 [10] = assay: as above
U2OS [11] = assay: as above
Vero E6 [12] = assay: as above
Calu-3 [13] = assay: cell viability relative to DMSO; higher = less toxic
Calu-3 [14] = assay: relative viability EC50 (midpoint between 100% and the lowest measured viability); higher = less toxic
Calu-3 [15] = assay: drug sensitivity score (DSS) for viability; higher = more toxic; extreme values may be limits of the assay

| SMILES | cell viability (Caco-2 [1]; 1 nM) [%] | cell viability (Caco-2 [1]; 10 nM) [%] | cell viability (Caco-2 [1]; 100 nM) [%] | cell viability (Caco-2 [1]; 1000 nM) [%] | cell viability (Caco-2 [1]; 10000 nM) [%] | cell viability (HepG2 [2]; 1 nM) [%] | cell viability (HepG2 [2]; 10 nM) [%] | cell viability (HepG2 [2]; 100 nM) [%] | cell viability (HepG2 [2]; 1000 nM) [%] | cell viability (HepG2 [2]; 10000 nM) [%] | cell viability (U2OS [3]; 1 nM) [%] | cell viability (U2OS [3]; 10 nM) [%] | cell viability (U2OS [3]; 100 nM) [%] | cell viability (U2OS [3]; 1000 nM) [%] | cell viability (U2OS [3]; 10000 nM) [%] | cell viability (Vero E6 [4]; 1 nM) [%] | cell viability (Vero E6 [4]; 10 nM) [%] | cell viability (Vero E6 [4]; 100 nM) [%] | cell viability (Vero E6 [4]; 1000 nM) [%] | cell viability (Vero E6 [4]; 10000 nM) [%] | relative viability EC50 (Caco-2 [5]) [µM] | relative viability EC50 (HepG2 [6]) [µM] | relative viability EC50 (U2OS [7]) [µM] | relative viability EC50 (Vero E6 [8]) [µM] | drug sensitivity score (Caco-2 [9]) | drug sensitivity score (HepG2 [10]) | drug sensitivity score (U2OS [11]) | drug sensitivity score (Vero E6 [12]) | cell viability (Calu-3 [13]; 1 nM) [%] | cell viability (Calu-3 [13]; 10 nM) [%] | cell viability (Calu-3 [13]; 100 nM) [%] | cell viability (Calu-3 [13]; 1000 nM) [%] | cell viability (Calu-3 [13]; 10000 nM) [%] | relative viability EC50 (Calu-3 [14]) [µM] | drug sensitivity score (Calu-3 [15]) |
| --- | --- | --- | --- | --- | --- | --- | --- | --- | --- | --- | --- | --- | --- | --- | --- | --- | --- | --- | --- | --- | --- | --- | --- | --- | --- | --- | --- | --- | --- | --- | --- | --- | --- | --- | --- |
| N#Cc1cccc(-c2nc(-c3cccnc3)no2)c1 [NS-9283] | 91.1 | 94.4 | 90.9 | 95 | 93.1 | 105 | 97.2 | 104 | 101 | 98.8 | 100 | 101 | 97.1 | 98.6 | 99.7 | 99.1 | 98.7 | 101 | 102 | 99.7 | > 10 | > 10 | > 10 | > 10 | 0 | 0 | 0 | 0 | – | – | – | – | – | – | – |
| O=C(O)[C@H]1O[C@@H](Oc2cc3oc(-c4ccccc4)cc(=O)c3c(O)c2O)[C@H](O)[C@@H](O)[C@@H]1O [baicalin] | 109 | 99 | 95.7 | 93.3 | 97.5 | – | – | – | – | – | 105 | 93.2 | 104 | 101 | 91.8 | 99.7 | 103 | 102 | 103 | 102 | > 10 | – | > 10 | > 10 | 0 | – | 0 | 0 | 103 | 98.5 | 90.4 | 104 | 109 | > 10 | 0 |
| CN1CCc2cc3c(cc2[C@H]1[C@@H]1OC(=O)c2c1ccc1c2OCO1)OCO3 [bicuculline-(+)] | 93.2 | 86.7 | 96.4 | 96.5 | 100 | 91.1 | 98.3 | 88.8 | 97.8 | 106 | 97.4 | 96.1 | 97.6 | 99.5 | 99.8 | 95.2 | 98.6 | 94.7 | 102 | 104 | > 10 | > 10 | > 10 | > 10 | 0 | 0 | 0 | 0 | – | – | – | – | – | – | – |
| C[C@H](CCC(=O)O)[C@H]1CC[C@H]2[C@@H]3C(=O)C[C@@H]4CC(=O)CC[C@]4(C)[C@H]3CC(=O)[C@]12C [dehydrocholate-acid] | 95.5 ± 1.1 | 84 ± 19 | 96.2 ± 5.6 | 94.2 ± 6.7 | 93.2 ± 16 | 95.8 ± 7.3 | 102 ± 5.5 | 95.05 ± 0.21 | 103 ± 1.1 | 102 ± 7.3 | 101 ± 2.8 | 96.9 ± 2.8 | 98.3 ± 1.3 | 96 ± 2.3 | 97.6 ± 0.14 | 97.8 ± 0.57 | 102 ± 5.9 | 91.2 ± 6.6 | 94 ± 8 | 103 ± 7.6 | > 10 | > 10 | > 10 | > 10 | 0 | 0 | 0 | 0 | – | – | – | – | – | – | – |
| N=C(N)c1ccc(/N=N/Nc2ccc(C(=N)N)cc2)cc1 [diminazene-aceturate] | 104 | 102 | 112 | 91.1 | 76.6 | 112 | 113 | 90.2 | 86.5 | 50.5 | 99 | 98.3 | 103 | 98.2 | 107 | 99.7 | 109 | 107 | 102 | 91.3 | > 10 | – | > 10 | > 10 | 1.9 | 4.2 | 0 | 0 | 93.7 | 101 | 99.9 | 99.2 | 94.8 | > 10 | 0 |
| O=C(O)[C@H](O)[C@@H](O)[C@H](O[C@@H]1O[C@H](CO)[C@H](O)[C@H](O)[C@H]1O)[C@H](O)CO [maltobionic-acid] | 89.3 | 101 | 85.6 | 97.9 | 115 | – | – | – | – | – | 93.6 | 103 | 97.8 | 102 | 101 | 94.3 | 89.8 | 94.4 | 88 | 101 | > 10 | – | > 10 | > 10 | 0 | – | 0 | 0 | 103 | 106 | 101 | 100 | 99.7 | > 10 | 0 |
| COC(=O)Nc1nc2cc(C(=O)c3cccs3)ccc2[nH]1 [nocodazole] | 102 | 105 | 73.6 | 54.1 | 40.6 | 114 | 103 | 85.6 | 40 | 40.2 | 105 | 110 | 70.4 | 46 | 24.3 | 105 | 108 | 64.8 | 30.7 | 26.8 | 0.174 | 0.159 | 0.252 | 0.103 | 11.8 | 13.3 | 13.6 | 17.9 | 103 | 105 | 73.8 | 65.4 | 54.9 | – | 10.6 |
| CCN1CCN(C(=O)N[C@@H](C(=O)N[C@@H]2C(=O)N3[C@@H]2SC(C)(C)[C@@H]3C(=O)O)c2ccccc2)C(=O)C1=O [piperacillin] | 93.8 | 91.1 | 97.8 | 103 | 106 | 114 | 113 | 104 | 103 | 95.5 | 97 | 94 | 93.9 | 102 | 103 | 97.2 | 99.1 | 97.7 | 96.5 | 110 | > 10 | > 10 | > 10 | > 10 | 0 | 0 | 0 | 0 | – | – | – | – | – | – | – |
| Cc1ncc(CO)c(/C=N/NC(=O)c2ccncc2)c1O [pyridoxal-isonicotinoyl-hydrazone] | 102 | 108 | 93.3 | 100 | 100 | – | – | – | – | – | 95.8 | 97.4 | 95.8 | 93 | 102 | 100 | 94.2 | 92.5 | 97.4 | 109 | > 10 | – | > 10 | > 10 | 0 | – | 0 | 0 | 90.1 | 99.4 | 102 | 103 | 92 | > 10 | 0 |
| CCn1cc(C(=O)O)c(=O)c2ccc(-c3ccncc3)cc21 [rosoxacin] | 102 | 98 | 96.3 | 98.6 | 95.7 | 94.7 | 97.8 | 97.5 | 94.6 | 111 | 101 | 96.6 | 99.2 | 97.8 | 99.9 | 99.8 | 102 | 89.1 | 103 | 103 | > 10 | > 10 | > 10 | > 10 | 0 | 0 | 0 | 0 | – | – | – | – | – | – | – |
| CCCCCCCCCCCCCCC[C@@H](O)[C@@H](N)CO [safingol] | 94.1 | 85.3 | 91 | 96.1 | 1.7 | 106 | 103 | 80 | 95.5 | 73.7 | 94 | 97.9 | 102 | 97.9 | 103 | 106 | 106 | 96.1 | 104 | 106 | 2.87 | – | > 10 | > 10 | 6 | 1.9 | 0 | 0 | 85.3 | 96.8 | 95.2 | 108 | 96.4 | > 10 | 0 |
| O=C(O)c1cc(O)c2c(c1)[C@H]([C@H]1c3cc(C(=O)O)cc(O)c3C(=O)c3c(O[C@@H]4O[C@H](CO)[C@@H](O)[C@H](O)[C@H]4O)cccc31)c1cccc(O[C@@H]3O[C@H](CO)[C@@H](O)[C@H](O)[C@H]3O)c1C2=O [sennoside-A] | 79.8 | 100 | 88 | 82.1 | 123 | 90.2 | 91.7 | 89.6 | 103 | 92.4 | 94 | 100 | 96.5 | 96.6 | 88.3 | 112 | 93.1 | 95.9 | 98.8 | 101 | > 10 | > 10 | > 10 | > 10 | 0 | 0 | 0 | 0 | 95.3 | 96.8 | 90.1 | 91 | 67.3 | – | 2.3 |
| CC[C@H](NC(=O)c1c(O)c(-c2ccccc2)nc2ccccc12)c1ccccc1 [talnetant] | 97.9 | 98.9 | 101 | 98.1 | 90 | 102 | 99 | 94.6 | 100 | 74.2 | 100 | 92.7 | 104 | 95 | 101 | 109 | 102 | 98.4 | 102 | 102 | > 10 | – | > 10 | > 10 | 0 | 1 | 0 | 0 | 104 | 97.3 | 104 | 96.5 | 106 | > 10 | 0 |
| O=c1n(CC2CO2)c(=O)n(CC2CO2)c(=O)n1CC1CO1 (stereo unspecified) [teroxirone] | 102 | 101 | 95.6 | 93.2 | 84.3 | 99.9 | 100 | 92.8 | 91.1 | 51.8 | 103 | 95.7 | 104 | 102 | 96.2 | 100 | 105 | 98.5 | 102 | 80.8 | > 10 | – | > 10 | > 10 | 0.4 | 4 | 0 | 0.4 | 94.4 | 91.2 | 99.3 | 84.1 | 90.9 | > 10 | 0 |
| S=C(NC1CCCCC1)N1CCC(c2cnc[nH]2)CC1 [thioperamide] | 98.7 | 99.4 | 92.7 | 103 | 95.4 | 108 | 97.3 | 104 | 100 | 92.7 | 100 | 96.2 | 98.7 | 93.1 | 96.4 | 103 | 103 | 96.5 | 94.3 | 95.9 | > 10 | > 10 | > 10 | > 10 | 0 | 0 | 0 | 0 | – | – | – | – | – | – | – |
